# ChEMBL document CHEMBL5113519, “Discovery of Novel Imidazo[4,5-c]quinoline Derivatives to Treat Inflammatory Bowel Disease (IBD) by Inhibiting Multiple Proinflammatory Signaling Pathways and Restoring Intestinal Homeostasis” (J Med Chem, 2022)
# The source made the active and inactive calls. The rule behind the calls is not given here.
# What was measured:
# [1] = Cytotoxicity against human THP1-Dual cells assessed as inhibition of cell growth measured after 24 hrs by CCK-8 method; format: toxicity, cell-based
# Mus musculus [2] = test: Anti-inflammatory bowel disease activity in DSS-induced acute enteritis mouse model assessed as decrese in lactobacillus abundance at 3 mg/kg; format: functional, organism-based
# THP1-Dual [3] = test: Anti-inflammatory activity against LPS-stimulated human THP1-Dual cells assessed as reduction in STAT3 phosphorylation level incubated for 6 hrs by Western blot analysis; format: functional, cell-based; conditions: dose 0.33-3 µM, DDE = dose-dependent effect
# [4] = target: T1, Tyrosine-protein kinase JAK3 (Homo sapiens, UniProt P52333)
# T1 sequence (P52333 whole entry): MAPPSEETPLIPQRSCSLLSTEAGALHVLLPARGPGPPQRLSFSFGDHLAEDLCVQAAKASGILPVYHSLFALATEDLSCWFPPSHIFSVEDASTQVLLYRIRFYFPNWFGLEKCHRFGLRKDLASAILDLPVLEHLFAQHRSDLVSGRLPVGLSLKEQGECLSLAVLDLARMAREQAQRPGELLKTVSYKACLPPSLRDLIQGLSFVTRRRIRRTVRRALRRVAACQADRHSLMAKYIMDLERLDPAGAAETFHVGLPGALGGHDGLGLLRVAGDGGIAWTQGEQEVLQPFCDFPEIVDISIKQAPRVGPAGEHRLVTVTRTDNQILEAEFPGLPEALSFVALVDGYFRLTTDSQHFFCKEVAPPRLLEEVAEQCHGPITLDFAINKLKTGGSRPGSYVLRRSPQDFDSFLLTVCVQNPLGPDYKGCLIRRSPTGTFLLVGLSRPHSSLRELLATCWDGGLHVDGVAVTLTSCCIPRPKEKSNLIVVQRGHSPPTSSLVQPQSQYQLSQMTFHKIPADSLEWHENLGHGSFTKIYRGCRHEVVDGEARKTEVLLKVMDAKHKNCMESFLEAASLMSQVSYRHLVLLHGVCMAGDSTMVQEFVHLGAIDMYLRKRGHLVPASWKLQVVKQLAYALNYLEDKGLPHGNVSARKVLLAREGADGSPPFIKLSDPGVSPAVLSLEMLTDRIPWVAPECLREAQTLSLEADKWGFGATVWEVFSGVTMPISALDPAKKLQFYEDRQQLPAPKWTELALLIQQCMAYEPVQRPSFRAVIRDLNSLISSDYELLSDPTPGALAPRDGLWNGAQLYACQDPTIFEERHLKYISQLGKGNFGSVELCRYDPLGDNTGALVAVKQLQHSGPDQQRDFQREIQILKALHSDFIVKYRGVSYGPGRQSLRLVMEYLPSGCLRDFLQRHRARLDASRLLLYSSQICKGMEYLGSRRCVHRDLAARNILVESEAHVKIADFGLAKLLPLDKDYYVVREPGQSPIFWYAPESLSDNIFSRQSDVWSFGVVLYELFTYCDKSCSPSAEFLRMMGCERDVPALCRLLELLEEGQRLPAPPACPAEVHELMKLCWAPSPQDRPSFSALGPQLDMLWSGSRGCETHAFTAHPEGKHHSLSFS
# Description: Inhibition of JAK3 (unknown origin) using Kinase/Tyr 6 peptide as substrate incubated for 1 hrs in presence of ATP by fluorescence microplate reader analysis
# THP1-Dual [5] = test: Downregulation of TNF alpha in human THP1-Dual cells at 1 uM incubated for 6 hrs; format: functional, cell-based
# [6] = Toxicity in mouse assessed as change in body weight at 50 mg/kg measured upto 2 weeks; format: organism-based; conditions: in vivo, 336 h
# THP1-Dual [7] = test: Downregulation of JAK/STAT in human THP1-Dual cells at 1 uM incubated for 6 hrs; format: functional, cell-based
# Mus musculus [8] = test: Antiinflammatory activity in DSS-induced acute colitis C57BL/6 mouse model assessed as reduction stool softness by measuring DAI score at 1 to 3 mg/kg, po administered daily and measured upto 11 days; format: functional, organism-based; conditions: dose 1-3 mg/kg, time <= 11.0 day
# THP1-Dual [9] = test: Downregulation of unfolded protein response in human THP1-Dual cells at 1 uM incubated for 6 hrs; format: functional, cell-based
# Mus musculus [10] = test: Anti-inflammatory activity in TNBS induced IBD BALB/c mouse model assessed as increase in survival probability at 5 mg/kg via oral gavage administered daily for 12 days; format: functional, organism-based; conditions: time 12.0 day
# THP1-Dual [11] = test: Inhibition of LPS induced IL-23A expression in human THP1-Dual cells at 1 uM incubated for 6 hrs; format: functional, cell-based
# [12] = Toxicity in mouse assessed as abnormal change in spleen at 20 to 50 mg/kg, IG measured upto 2 weeks; format: organism-based; conditions: in vivo, po, 336 h, dose 20-50 mg/kg
# THP1-Dual [13] = test: Anti-inflammatory activity against LPS-stimulated human THP1-Dual cells assessed as inhibition of IL-6 secretion incubated for 6 hrs followed by LPS stimulation by Western blot analysis; format: functional, cell-based; conditions: dose 0.33-3 µM, DDE = dose-dependent effect
structure (smiles),measurement,setting,value
Cc1nc2cnc3ccc(-c4cc(Cl)c(O)c(Cl)c4)cc3c2n1C1CCN(C)CC1,IC50 at 24 h,[1],4300 nM
same,Activity,Mus musculus [2],Active
same,Activity,THP1-Dual [3],Dde
same,IC50,[4],46.2 nM
same,Activity,THP1-Dual [5],Active
same,Activity,[6],Non-Toxic
same,Activity,THP1-Dual [7],Active
same,Activity,Mus musculus [8],Active
same,Activity,THP1-Dual [9],Active
same,Activity,Mus musculus [10],Active
same,inhibition,THP1-Dual [11],Active
same,Activity,[12],Non-Toxic
same,Activity,THP1-Dual [13],Dde
